Test results published in US20150284335A1, “Benzoimidazoles as prolyl hydroxylase inhibitors” (Janssen Pharmaceutica NV, priority 2008, published 2015).
Marks after values point to notes of the source that are not given here.

Key:
PHD2181-417 = biological target: T1, PHD2181-417 (Homo sapiens, UniProt Q9GZT9); test: PHD enzyme activity assay ([14C]-succinic acid production); assay type: biochemical; conditions: inhibition of PHD2181-417 activity; HIF-1α peptide 10 μM, [5-14C]-2-oxoglutaric acid, 10 minutes; read-out: Enzyme pIC50 (converted);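 further: enzyme expressed in E. coli BL21, assayed in Tris-HCl pH 7.5 with catalase, DTT and ascorbate, [14C]-succinic acid beta-counted after DNP precipitation of residual 2-oxoglutarate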
T1 construct: histidine tag (N, cleaved yes); Smt3 (SUMO) tag (N, cleaved yes); made in house; host or cells: E. coli BL21 (pBAD vector)
T1 sequence (Q9GZT9 181-417): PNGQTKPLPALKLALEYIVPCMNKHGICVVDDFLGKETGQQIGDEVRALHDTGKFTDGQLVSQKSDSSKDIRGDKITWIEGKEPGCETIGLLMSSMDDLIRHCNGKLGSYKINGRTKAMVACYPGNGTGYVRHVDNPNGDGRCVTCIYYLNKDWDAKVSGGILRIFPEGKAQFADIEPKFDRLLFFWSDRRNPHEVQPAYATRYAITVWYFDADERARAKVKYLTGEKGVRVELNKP

Hep-3B cells = test: Cellular assay: EPO secretion in Hep-3B cells; assay type: cell-based, human; conditions: 24 hours, percent of EPO secretion relative to assay control compound
[1] = final compound concentration 100 μM

Row | SMILES | IC50 (PHD2181-417) [µM] | Cellular % EPO Stimulation (Hep-3B cells; [1]) [%] | Cellular % EPO Stimulation (Hep-3B cells; final compound concentration of 10 μM)
1 | O=C(O)CNC(=O)c1nc2cc(-c3ccc(OCc4cccc(Cl)c4)c(Cl)c3)ccc2[nH]1 [Example 21, ({5-[3-Chloro-4-(3-chloro-benzyloxy)phenyl]-1H-benzoimidazole-2-carbonyl}-amino)-acetic acid] | 7.94 | −1.43 | –
2 | Cc1cc(-c2ccc3[nH]c(C(=O)NCC(=O)O)nc3c2)cc(C)c1OCc1cccc(Cl)c1 [Example 22, ({5-[4-(3-Chloro-benzyloxy)-3,5-dimethyl-phenyl]-1H-benzoimidazole-2-carbonyl}-amino)-acetic acid] | 12.6 | −1.06 | –
3 | COc1cccc(-c2ccc3[nH]c(C(=O)NCC(=O)O)nc3c2)c1 [Example 23, {[5-(3-Methoxy-phenyl)-1H-benzoimidazole-2-carbonyl]-amino}-acetic acid] | 39.8 | 1.40 | –
4 | O=C(O)CNC(=O)c1nc2cc(-c3cc(C(=O)NCc4ccccc4)ccc3F)ccc2[nH]1 [Example 24, {[5-(5-Benzylcarbamoyl-2-fluoro-phenyl)-1H-benzoimidazole-2-carbonyl]-amino}-acetic acid] | 15.8 | 13.56 | –
5 | O=C(O)CNC(=O)c1nc2cc(-c3ccc4ccccc4c3)ccc2[nH]1 [Example 25, [(5-Naphthalen-2-yl-1H-benzoimidazole-2-carbonyl)-amino]-acetic acid] | 12.6 | 2.10 | –
6 | CCCOc1ccc(-c2ccc3[nH]c(C(=O)NCC(=O)O)nc3c2)cc1 [Example 26, {[5-(4-Propoxy-phenyl)-1H-benzoimidazole-2-carbonyl]-amino}-acetic acid] | 15.8 | 2.50 | –
7 | Cc1cc(-c2ccc3[nH]c(C(=O)NCC(=O)O)nc3c2)ccc1Cl [Example 27, {[5-(4-Chloro-3-methyl-phenyl)-1H-benzoimidazole-2-carbonyl]-amino}-acetic acid] | 39.8 | −0.70 | –
8 | O=C(O)CNC(=O)c1nc2cc(-c3cc(Cl)ccc3F)ccc2[nH]1 [Example 28, {[5-(5-Chloro-2-fluoro-phenyl)-1H-benzoimidazole-2-carbonyl]-amino}-acetic acid] | 25.1 | 1.40 | –
9 | O=C(O)CNC(=O)c1nc2cc(NC(=O)c3ccccc3)ccc2[nH]1 [Example 29, [(5-Benzoylamino-1H-benzoimidazole-2-carbonyl)-amino]-acetic acid] | 63.1 | −3.30 | –
10 | O=C(O)CNC(=O)c1nc2ccc(NS(=O)(=O)c3ccccc3)cc2[nH]1 [Example 30, [(6-Benzenesulfonylamino-1H-benzoimidazole-2-carbonyl)-amino]-acetic acid] | 31.6 | 1.10 | –
11 | O=C(O)CNC(=O)c1nc2ccc(NCc3ccccc3)cc2[nH]1 [Example 31, [(6-Benzylamino-1H-benzoimidazole-2-carbonyl)-amino]-acetic acid] | 5.01 | 1.40 | –
12 | O=C(O)c1cnn(-c2nc3cc(Cl)c(Cl)cc3[nH]2)c1 [Example 33, 1-(5,6-Dichloro-1H-benzoimidazol-2-yl)-1H-pyrazole-4-carboxylic acid] | 0.1 | 168.46 | –
13 | O=C(O)c1cnn(-c2nc3cc(C(F)(F)F)ccc3[nH]2)c1 [Example 34, 1-(5-Trifluoromethyl-1H-benzoimidazol-2-yl)-1H-pyrazole-4-carboxylic acid] | 0.251 | 127.80 | –
14 | O=C(O)c1cnn(-c2nc3cc(-c4cccc(OCc5ccc(Cl)cc5)c4)ccc3[nH]2)c1 [Example 45, 1-{5-[3-(4-Chloro-benzyloxy)-phenyl]-1H-benzoimidazol-2-yl}-1H-pyrazole-4-carboxylic acid] | 0.0398 | 2.10 | –
15 | C[C@@H](NC(=O)c1nc2cc(Cl)c(Cl)cc2[nH]1)C(=O)O [Example 53, (R)-2-[(5,6-Dichloro-1H-benzoimidazole-2-carbonyl)-amino]-propionic acid] | > 100 | – | 11.3* %
16 | C[C@@H](NC(=O)c1nc2ccc(I)cc2[nH]1)C(=O)O [Example 54, (R)-2-[(5-Iodo-1H-benzoimidazole-2-carbonyl)-amino]-propionic acid] | > 100 | 7.50 | –
